Data reported in patent US10973782B2, “Pharmaceutical composition for improving or preventing progression of chronic kidney disease” (Frimline Private Limited, priority 2017, dated 2021).

System: 5/6 Nephrectomy induced chronic kidney disease (CKD)
Experiment: 5/6 Nephrectomy induced chronic kidney disease in rat
Type: in vivo, rat (male Wistar)
Conditions: 5/6 nephrectomy rats, mean; for Serum Analysis BUN / Serum Analysis Creatinine / Serum Analysis IL-6 / Urine Analysis Glomerular Filtration Rate: daily p.o. treatment for 10 weeks, end of 10th week; for % Decreased Creatinine / % Decreased in BUN / % Decreased in IL-6: serum; for % Decreased Creatinine / % Decreased in BUN / % Decreased in IL-6 / % Increased GFR: daily p.o. 10 weeks; for % Increased GFR: urine analysis
Experimental: Screening effect against 5/6 Nephrectomy induced chronic kidney disease (CKD) of synergistic combination or composition/formulation comprising PEA and other natural ingredients in rat. The following trials were carried out:
54 male Wistar rats (Rat Rattus) (6 per group) were maintained in animal house in a light/dark atmosphere based on a 12 hour cycle having temperature and relative humidity in the range of 25±2° C. and 30-70% respectively. To maintain the appropriate conditions, temperature and relative humidity were recorded three times daily. During complete experiment, animals were supplied with the standard certified rat pellet feed (manufactured by Keval sales corporation, Vadodara) and drinking water treated by the reverse osmosis ad libitum.
In order to evaluate the activity against chronic kidney disease, fifty four (54) male rats were screened and divided in to nine groups. For a comparative analysis, groups were divided as sham control (Group 1), disease control (Group 2), treatment groups with individual components (Group 3, Group 4, Group 5 and Group 6 as PEA, Cholecalciferol, Quercetin and Resveratrol respectively), test composition formulation of the present invention (Group 7 and Group 8 as PEA combinations) and reference standard drug (Group 9).
The animals under consideration were examined for a study period of 10 weeks and two-stage surgical procedure for kidney ligation and removal were performed.
Stage one: A ventral midline incision into the abdomen was made to expose the animal's left kidney, and the organ was freed from the surrounding tissue. A piece of suture was placed and ligated around each pole of the kidney at its one-third position. The one-third kidney on each pole was excised beyond the ligatures and the abdominal incision was closed.
Stage two: This procedure was performed 5-7 days after stage one. The animals were placed in ventral recumbancy and an incision was made parallel to the midline. The abdominal cavity was entered and the right kidney was made free from the surrounding tissue. The kidney was gently pulled out from the incision, and the adrenal gland was freed and replaced into the abdominal cavity. The renal blood vessels and the ureter were ligated or cauterized. The kidney was then removed by transecting the vessels and ureter just distal to the ligature or cauterized section. The skin incision was closed with wound clips.
Treatment. All treatment groups were treated on daily basis for 10 weeks after stage two of surgery. After completion of the study at the end of 10th week, each group was analyzed in terms of the evaluating parameters such as blood collection, biochemistry analysis, urine analysis and histopathology of kidney.

Compound | Serum Analysis BUN | Serum Analysis Creatinine | Serum Analysis IL-6 | Urine Analysis Glomerular Filtration Rate | % Decreased Creatinine | % Decreased in BUN | % Decreased in IL-6 | % Increased GFR
CCCCc1nc(Cl)c(CO)n1Cc1ccc(-c2ccccc2-c2nn[nH]n2)cc1 [Losartan] | 52.81 mg/dL | 1.22 mg/dL | 141.67 pg/mL | 6.80 mL/min/kg | 18.98% | 35.80% | 21.58% | 23.64%
O=c1c(O)c(-c2ccc(O)c(O)c2)oc2cc(O)cc(O)c12 [Quercetin] | 76.62 mg/dL | 1.44 mg/dL | 175.15 pg/mL | 5.64 mL/min/kg | 4.02% | 6.85% | 3.04% | 2.55%
C=C1CC[C@H](O)C/C1=C/C=C1\CCC[C@]2(C)[C@@H]([C@H](C)CCCC(C)C)CC[C@@H]12 [Cholecalciferol] | 75.63 mg/dL | 1.40 mg/dL | 178.45 pg/mL | 5.65 mL/min/kg | 7.02% | 8.05% | 1.22% | 2.73%
CCCCCCCCCCCCCCCC(=O)NCCO [PEA, Palmitoylethanolamide] | 60.98 mg/dL | 1.12 mg/dL | 162.18 pg/mL | 6.50 mL/min/kg | 25.63% | 25.87% | 10.22% | 18.18%
Oc1ccc(C=Cc2cc(O)cc(O)c2)cc1 [Resveratrol] | 74.51 mg/dL | 1.41 mg/dL | 174.42 pg/mL | 5.75 mL/min/kg | 6.30% | 9.42% | 3.45% | 4.55%
